For the test, the system named is human C3A liver cells. Nature of the test: Microarray differential gene expression in human C3A liver cell cultures treated with steroids. The test is classed as cell-based. The source says:
Incyte clones represent template sequences derived from the LWESEQ GOLD assembled human sequence database (Incyte Genomics). In cases where more than one clone was available for a particular template, the 5′-most clone in the template was used on the microarray. The HUMAN GENOME GEM series 1-4 microarrays (Incyte Genomics) contain 28,626 array elements which represent 10,068 annotated clusters and 18,558 unannotated clusters. For the UNIGEM series microarrays (Incyte Genomics), Incyte clones were mapped to non-redundant Unigene clusters (Unigene database (build 46), NCBI; Shuler (1997) J Mol Med 75:694-698), and the 5′ clone with the strongest BLAST alignment (at least 90% identity and 100 bp overlap) was chosen, verified, and used in the construction of the microarray. The UNIGEM V microarray (Incyte Genomics) contains 7075 array elements which represent 4610 annotated genes and 2,184 unannotated clusters.
To construct microarrays, cDNAs were amplified from bacterial cells using primers complementary to vector sequences flanking the cDNA insert. […] Amplified cDNAs were then purified using […]-400 columns (APB). Purified cDNAs were immobilized on polymer-coated glass slides. Glass microscope slides (Corning, Corning N.Y.) were cleaned by ultrasound in 0.1% SDS and acetone, with extensive distilled water washes between and after treatments. Glass slides were etched in 4% hydrofluoric acid (VWR Scientific Products, West Chester Pa.), washed thoroughly in distilled water, and coated with 0.05% aminopropyl silane (Sigma Aldrich) in 95% ethanol. Coated slides were cured in a 110° C. oven. cDNAs were applied to the coated glass substrate using a procedure described in U.S. Pat. No. 5,807,522. One microliter of the cDNA at an average concentration of 100 ng/μl was loaded into the open capillary printing element by a high-speed robotic apparatus which then deposited about 5 nl of cDNA per slide.
Microarrays were UV-crosslinked using a […] UV-crosslinker (Stratagene), and then washed at room temperature once in 0.2% SDS and three times in distilled water. Non-specific binding sites were blocked by incubation of microarrays in 0.2% casein in phosphate buffered saline (Tropix, Bedford Mich.) for 30 minutes at 60° C. followed by washes in 0.2% SDS and distilled water as before.
In all cases, mRNA from untreated early confluent C3A cells were prepared in parallel as described below.
Cells were harvested and lysed in 1 ml of TRIZOL reagent (5×10^6 cells/ml; Life Technologies). Lysates were vortexed thoroughly, incubated at room temperature for 2-3 minutes, and extracted with 0.5 ml chloroform. The extract was mixed, incubated at room temperature for 5 minutes, and centrifuged at 15,000 rpm for 15 minutes at 4° C. The aqueous layer was collected, and an equal volume of isopropanol was added. Samples were mixed, incubated at room temperature for 10 minutes, and centrifuged at 15,000 rpm for 20 minutes at 4° C. The supernatant was removed, and the RNA pellet was washed with 1 ml of 70% ethanol, centrifuged at 15,000 rpm at 4° C., and resuspended in RNAse-free water. The concentration of the RNA was determined by measuring the optical density at 260 nm.
Poly(A) RNA was prepared using an OLIGOTEX mRNA kit (Qiagen) with the following modifications: OLIGOTEX beads were washed in tubes instead of on spin columns, resuspended in elution buffer, and then loaded onto spin columns to recover mRNA. To obtain maximum yield, the mRNA was eluted twice.
Each poly(A) RNA sample was reverse transcribed using MMLV reverse-transcriptase, 0.05 pg/μl oligo-d(T) primer (21mer), 1× first strand buffer, 0.03 units/ul RNAse inhibitor, 500 uM dATP, 500 uM dGTP, 500 uM dTTP, 40 uM dCTP, and 40 uM either dCTP-Cy3 or dCTP-Cy5 (APB).

SMILES strings stand for the structures.

On to `CC#C[C@]1(O)CC[C@H]2[C@@H]3CCC4=CC(=O)CCC4=C3[C@@H](c3ccc(N(C)C)cc3)C[C@@]21C` [Mifepristone], for which the “Ave DE [log2] (C3A treated with steroid)” value (Clone ID 4543123) is −1.20 log2 and the “Ave DE [log2] (C3A treated with steroid)” value (Clone ID 5426158) is −0.93 log2.
For `C[C@H]1C[C@H]2[C@@H]3CCC4=CC(=O)C=C[C@]4(C)[C@@]3(Cl)[C@@H](O)C[C@]2(C)[C@@]1(O)C(=O)CO` [beclomethasane], where the note is “Clone ID 5398701”, the “Ave DE [log2] (C3A treated with steroid)” value is 0.82 log2.
`C[C@H]1C[C@H]2[C@@H]3CCC4=CC(=O)C=C[C@]4(C)[C@@]3(F)[C@@H](O)C[C@]2(C)[C@@]1(O)C(=O)CO` [betamethasone]: the “Ave DE [log2] (C3A treated with steroid)” value reads like this: (Clone ID 220378) 0.57 log2; (Clone ID 615776) 1.11 log2; (Clone ID 619447) 0.33 log2; (Clone ID 686993) 0.51 log2; (Clone ID 689296) 1.12 log2; (Clone ID 1323327) 1.00 log2. The “Ave DE [log2] (C3A treated with steroid)” value is 0.91 log2 (Clone ID 1329625); 0.60 log2 (Clone ID 1496011); −0.98 log2 (Clone ID 1501410); 0.77 log2 (Clone ID 1600180); 1.37 log2 (Clone ID 1798594); 0.24 log2 (Clone ID 1816768). The “Ave DE [log2] (C3A treated with steroid)” value runs as follows: (Clone ID 1824860) 0.70 log2; (Clone ID 1857044) 0.89 log2; (Clone ID 1951845) 1.02 log2; (Clone ID 2025128) 1.20 log2; (Clone ID 2046717) 0.83 log2; (Clone ID 2078880) −0.75 log2. The “Ave DE [log2] (C3A treated with steroid)” value reads like this: (Clone ID 2170820) 1.30 log2; (Clone ID 2173002) 0.98 log2; (Clone ID 2173973) 0.81 log2; (Clone ID 2189061) 0.23 log2; (Clone ID 2222155) 0.50 log2; (Clone ID 2343836) 0.63 log2. In addition, the “Ave DE [log2] (C3A treated with steroid)” value by setting is: (Clone ID 2404746) 1.46 log2; (Clone ID 2407620) 0.02 log2; (Clone ID 2430165) 0.68 log2; (Clone ID 2482388) 1.14 log2; (Clone ID 2660756) 1.26 log2; (Clone ID 2687356) 1.23 log2. Further, the “Ave DE [log2] (C3A treated with steroid)” value runs as follows: (Clone ID 2695371) 0.95 log2; (Clone ID 2703282) −0.85 log2; (Clone ID 2734007) 1.04 log2; (Clone ID 2753065) 0.75 log2; (Clone ID 3229449) 1.05 log2; (Clone ID 3474091) 0.23 log2. The “Ave DE [log2] (C3A treated with steroid)” value (Clone ID 3528232) was 0.80 log2; the “Ave DE [log2] (C3A treated with steroid)” value (Clone ID 3729593) was 0.55 log2; the “Ave DE [log2] (C3A treated with steroid)” value (Clone ID 3876612) was 0.19 log2; the “Ave DE [log2] (C3A treated with steroid)” value (Clone ID 3973687) worked out at 1.47 log2; the “Ave DE [log2] (C3A treated with steroid)” value (Clone ID 4087621) is 1.09 log2; the “Ave DE [log2] (C3A treated with steroid)” value (Clone ID 4215034) is 1.50 log2. In addition, the “Ave DE [log2] (C3A treated with steroid)” value came out at 1.19 log2 (Clone ID 4403805); 1.24 log2 (Clone ID 4855265); 0.50 log2 (Clone ID 5206821); 1.10 log2 (Clone ID 5398701); 0.77 log2 (Clone ID 5521873); 1.15 log2 (Clone ID 5543385).

The values are drawn from patent US6673549B1, “Genes expressed in C3A liver cell cultures treated with steroids” (Incyte Corporation, priority 2000, dated 2004).
